Experimental findings from article PMC12340087, “Guanine is an inhibitor of c-jun terminal kinases” (Scientific Reports, 2025) are described below.

One may read the IC50 as the concentration needed to halve the response being measured.

What all share (experiment): radiometric […]-ATP kinase assay, ATF2 substrate, ATP at apparent Km
Type in all cases: biochemical

Test [1] deals with T1, JNK2 (Homo sapiens, UniProt P45984).
T1 construct: gene MAPK9; untagged JNK2 (amino acids 1-424)

Test [2] has as its target T2, JNK1 (Homo sapiens, UniProt P45983).
T2 construct: gene MAPK8; untagged JNK1 (amino acids 1-384)

For test [3], the target named is T3, JNK3 (Homo sapiens, UniProt P53779).
T3 construct: gene MAPK10; GST-tagged JNK3 (amino acids 1-426)
T3 sequence (P53779 1-426): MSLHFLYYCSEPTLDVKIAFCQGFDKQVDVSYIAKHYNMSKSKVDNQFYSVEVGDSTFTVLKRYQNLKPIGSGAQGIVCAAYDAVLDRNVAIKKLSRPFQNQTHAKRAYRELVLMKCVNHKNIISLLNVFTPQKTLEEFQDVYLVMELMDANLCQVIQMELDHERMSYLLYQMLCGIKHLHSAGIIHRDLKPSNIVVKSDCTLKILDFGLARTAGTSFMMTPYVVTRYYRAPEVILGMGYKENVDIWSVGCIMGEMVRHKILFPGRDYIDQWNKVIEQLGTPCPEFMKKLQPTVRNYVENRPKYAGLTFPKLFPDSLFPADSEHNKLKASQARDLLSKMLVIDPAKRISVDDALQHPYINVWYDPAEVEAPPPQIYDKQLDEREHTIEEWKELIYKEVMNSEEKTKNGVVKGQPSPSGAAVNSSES

T1 sequence (P45984 whole entry, the tested form may be a part): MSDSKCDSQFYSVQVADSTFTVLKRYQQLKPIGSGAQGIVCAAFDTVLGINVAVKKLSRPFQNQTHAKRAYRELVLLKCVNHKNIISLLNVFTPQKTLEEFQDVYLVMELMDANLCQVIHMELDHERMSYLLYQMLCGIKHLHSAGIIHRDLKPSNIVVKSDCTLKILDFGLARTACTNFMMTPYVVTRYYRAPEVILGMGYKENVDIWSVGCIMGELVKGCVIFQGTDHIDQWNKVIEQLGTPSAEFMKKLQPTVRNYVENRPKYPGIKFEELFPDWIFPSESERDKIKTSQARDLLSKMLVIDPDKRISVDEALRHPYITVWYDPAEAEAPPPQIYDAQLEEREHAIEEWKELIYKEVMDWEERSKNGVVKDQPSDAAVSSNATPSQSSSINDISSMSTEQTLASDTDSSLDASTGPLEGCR
T2 sequence (P45983 1-384 isoform P45983-2): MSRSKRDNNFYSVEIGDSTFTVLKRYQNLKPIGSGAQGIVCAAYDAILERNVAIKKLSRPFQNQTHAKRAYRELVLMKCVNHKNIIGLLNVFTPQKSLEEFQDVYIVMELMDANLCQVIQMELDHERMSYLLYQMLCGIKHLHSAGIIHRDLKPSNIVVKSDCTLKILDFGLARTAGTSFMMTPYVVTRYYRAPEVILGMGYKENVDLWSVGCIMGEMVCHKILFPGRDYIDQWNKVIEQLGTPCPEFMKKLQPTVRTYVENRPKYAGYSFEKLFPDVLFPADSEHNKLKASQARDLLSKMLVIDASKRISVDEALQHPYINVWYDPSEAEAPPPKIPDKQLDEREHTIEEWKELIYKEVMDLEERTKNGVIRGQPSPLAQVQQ

With `Nc1nc2nc[nH]c2c(=O)[nH]1` [G, guanine], the half-inhibitory concentration (IC50) was determined as 180 µM in test [1], 200 µM in test [2] and 330 µM in test [3].
